Data published in patent EP3506874B1, “A PERSONAL CARE COMPOSITION” (Unilever N.V., priority 2016, dated 2018).

Columns and labels:
THP1-XBlue™ cells = test: Anti-inflammation THP-1 in vitro assay: LPS-induced IL-6 by ELISA; type: cell-based
Procedure: The following procedure was used to test the anti-inflammation efficacy of the various actives alone or in combination. THP1-XBlue™ (Cat No: thpx-sp, InvivoGen) cells were cultured as suspense in RPMI 1640 medium supplemented with 10% FBS, penicillin (10 U/mL) - streptomycin (10 µg/ML). Cells were differentiated in 24-well plates at the density of 5 x 10^5 cells / well with 100 nM PMA for 72 h. Cells were then co-treated with pure E. coli lipopolysaccharides (LPS) and single concentration or a combination of 6-gingerdiol and niacinamide at different doses. After 24 h, the supernatants were collected measured for interleukin (IL)-6 as pro-inflammatory bio-marker using enzyme-linked immunosorbent assay (ELISA).

[1] = system: Primary adult human keratinocytes (HEKa); test: 2-D Dandruff Model: triple cytokine mix (IL-17, IL-22, TNFα) induced IL-8 by ELISA, normalised to protein; type: cell-based; conditions: with triple cytokine mix, mix alone 744.83
Procedure: Primary adult human keratinocytes (HEKa) frozen at passage 1 were purchased from Invitrogen (Cat no […]). They were thawed into KGM Gold (Lonza cat no 00195769) made up with all components of the accompanying bullet kit plus 70μM calcium (from a stock solution of 200mM calcium chloride), placed in a T75 tissue culture flask and grown to 70-80% confluence. The cells were passaged and again grown to 70-80% confluence. At passage 3 the cells were washed with calcium and magnesium free PBS (Life Technologies cat no 14190-094) and removed from the flask using trypsin-EDTA (Life Technologies cat no 25300-054) and washed by centrifugation with trypsin neutralising solution (Life Technologies cat no R-002-100). The cell pellet was re-suspended in KGM Gold plus 70μM calcium and containing the bullet kit components but omitting the gentamycin and hydrocortisone (referred to as plating medium). The cells were plated into 24-well plates at a density of 2x10^4 cells/well and allowed to settle for 24 hours prior to treatment. The medium is removed from the cells and replace by 0.5ml plating medium containing […], […] and […] TNFα together with the active at the required concentration. A concentration range can be done. Also included are an untreated control, a vehicle control and a triple cytokine mix without active all in triplicate. The plates are incubated for a further 16 to 24 hours. In this case the actives were 6-gingerdiol and a selection of curcuminoids. The medium is harvested for IL-8 ELISA (R &D Systems Duoset kit cat no DY208) and the cells lysed for protein assay (Pierce BCA Protein Assay Kit Life Technologies cat no 23225) in order to normalise IL-8 to protein.

[2] = Solubility in organic solvents; type: physicochemical; conditions: commonly used organic solvents such as alcohols, ethers, esters, acetonitrile, chloroform, dichloromethane, dimethylformamide, dimethylsulfoxide

Row | SMILES | Concentration of IL-6 (THP1-XBlue™ cells; 1.25 µM of 6-gingerdiol, with LPS, LPS alone 46137) [pg/mL] | Concentration of IL-6 (THP1-XBlue™ cells; 10 µM of 6-gingerdiol, co-treated with LPS, 24 h, LPS alone 10547) [pg/mL] | Concentration of IL-8 ([1]; 5 µM of 6-gingerdiol) [pg/100µgprotein] | Concentration of IL-8 ([1]; 10 µM of 6-gingerdiol) [pg/100µgprotein] | Concentration of IL-8 ([1]; 20 µM of 6-gingerdiol) [pg/100µgprotein] | solubility [2] | Concentration of IL-6 (THP1-XBlue™ cells; 0.5 mM niacinamide, with LPS, LPS alone 46137) [pg/mL] | Concentration of IL-6 (THP1-XBlue™ cells; 1 mM of niacinamide, with LPS, LPS alone 46137) [pg/mL] | Concentration of IL-6 (THP1-XBlue™ cells; 16 mM of niacinamide, co-treated with LPS, 24 h, LPS alone 10547) [pg/mL] | Concentration of IL-8 ([1]; 10 mM of niacinamide) [pg/100µgprotein]
1 | CCCCCC(O)CC(O)CCc1ccc(O)c(OC)c1 (stereo not shown) [6-gingerdiol, 1-(4-hydroxy-3-methoxyphenyl)decane-3,5-diol] | 37212 | 8781 | 347.99 | 446.85 | 390.31 | soluble |  |  |  | 
2 | NC(=O)c1cccnc1 [niacinamide] |  |  |  |  |  |  | 41688 | 39894 | 6031 | 408.30
